How the values were obtained:
HO-1 = HO-1 protein and mRNA in tumor and heart of xenograft mice (Western blot, qRT-PCR); format: in vivo; details: heart
Description: Tumors and hearts of the mice were rapidly removed, frozen on dry ice and kept at −70° C. Tissue was then homogenized and RNA and proteins extracted using the NucleoSpin® RNA/Protein kit according to the manufacturer's protocol (Macherey-Nagel, GmbH & Co KG).
Total RNA ([…]) was primed by oligo dT and reverse-transcribed by Verso cDNA kit according to the manufacturer's protocol (Thermo Scientific). Analyses of qPCR were performed with Kapa Sybr® Fast (Kapa Biosystems) on a Step One Plus thermocycler (Applied Biosystems). The comparative threshold method was used to calculate the relative gene expression. Values were normalized against glyceraldehyde 3-phosphate dehydrogenase (GAPDH). Expression of the GAPDH mRNA in each individual sample was used to normalize the dataset. The sequences of the primers were as follows: […]
Protein levels in the samples were determined with the BCA protein assay kit (Pierce). The samples were subjected to Western blot analyses. The expression of proteins was visualized using their specified primary antibodies followed by the secondary IgG IRDye® 680DX antibody. Each detected band was quantified using the Odyssey Infrared Imaging System (LI-COR Biosciences) and normalized to the level of actin. The fold increase of a specific protein was determined by the ratio of the band intensity obtained from treated and untreated samples.
The effect of the drugs on the expression of genes associated with cell survival and death was examined by following changes in transcription and protein expression in tissue samples taken from the mice with glioblastoma xenografts. Heme oxygenase (HO-1) is known to play a protective role in the heart, whereas, in many cancers it is expressed and promotes growth and survival of neoplastic cells.

TNF-α = TNF-α in supernatant of LPS-treated THP1 cells (ELISA); format: cell-based; details: 1 μg/ml LPS, AN446 20 or 40 μM, FIG. 7B
Description: The effect of AN446 on inflammation-associated pathways was evaluated in the monocytic THP1 cell line and in the MDA-MB-231 breast carcinoma cell line. Supernatants of treated THP1 cells were collected and IL-6, IL-10 and TNF-α concentrations were quantified by ELISA (R&D systems). TLR4 expression in THP1 cells was assessed using fluorescent anti-TLR4 antibodies and FACS analysis. In addition, gene expression for MCP-1, TNF-α and TLR4 in MDA-MB-231 was evaluated by qRT-PCT, following treatment with AN446 and/or paclitaxel.

IL-6 = assay: LPS-induced IL-6 secretion by normal human astrocytes (sandwich-ELISA); format: cell-based; details: 20 μM, LPS 1 μg/ml 24 hours, FIG. 16
Description: Normal human astrocytes (NHA) were treated with 20 μM AN446, and lipopolysaccharide (1 μg/ml) was then added for 24 hours, and the supernatants of the cultured cells were collected. IL-6 concentrations in cell culture supernatants were quantified by sandwich-ELISA using specific pairs of mAb antibodies (R&D).

CCCC(CCC)C(=O)Nc1nc2c(ncn2COCCOC(=O)C(CCC)CCC)c(=O)[nH]1 [AN446, N-valproyl-9-(2-valproyloxy)ethoxymethyl-guanine]
HO-1 expression in the heart (HO-1; co-treatment with Dox): increased the expression of this enzyme to a significantly higher level | HO-1 mRNA in the heart, elevation of basal expression level (HO-1; co-treatment with Dox): 3.89±0.35 fold | HO-1 expression in the heart (decrease) (HO-1; single agent, FIGS. 4D, 4E): did not significantly change | LPS-induced expression of TNF-α (TNF-α): suppressed | lipopolysaccharide-induced secretion of IL-6 by human astrocytes (IL-6): inhibited
